Laboratory results from patent US10047105B2, “Gyrase inhibitors” (Merck Sharp & Dohme Corp., priority 2009, dated 2018).
Converted amounts (≈) assume the structure as drawn.

Experiments:
Format in all cases: cell-based
S. pneumoniae ATCC 51916 = experiment: MIC, S. pneumoniae; details: S. pneumoniae (Spn52); in µg/mL
S. aureus ATCC 13709 = experiment: MIC, antibacterial potency, S. aureus; details: S. aureus (SA); in µg/mL
E. coli 8 ATCC 25922 = experiment: MIC, E. coli 8 (wt); details: E. coli 8 (EC8)

Compound	MIC Spn52 (S. pneumoniae ATCC 51916)	MIC, SA (S. aureus ATCC 13709)	MIC EC8 (E. coli 8 ATCC 25922) [µg/mL]
CCc1[nH]c2nc(Sc3cnc4cccnc4c3)nc(N3CCC(CNS(=O)(=O)c4ccccc4)C3)c2c1Cl (stereo not drawn) [701,045]	1	<=0.5	> 64
CCc1[nH]c2nc(Sc3cnc4cccnc4c3)nc(N3CCC(CNS(=O)(=O)c4cnoc4C)C3)c2c1Cl (stereo not drawn) [701,046]	4	2	> 64
CCc1[nH]c2nc(Sc3cnc4cccnc4c3)nc(N3CCC(CNC(=O)c4nccs4)C3)c2c1Cl (stereo not drawn) [701,047]	<=0.5	<=0.5	> 64
CCc1[nH]c2nc(Sc3ccc4cc(C(=O)N5CC(O)C5)c(C)[n+]([O-])c4c3)nc(N3CC[C@@H](N)C3)c2c1Cl [701,048]	>64	16	> 64
CCc1[nH]c2nc(Sc3ccc4cncnc4c3)nc(N3CC[C@@H](N)C3)c2c1Cl [701,049]	<=0.5	<=0.5	8 (≈ 18.8 µM)
CCc1[nH]c2nc(Sc3ccc4cncnc4c3)nc(N3CC(N)C3)c2c1Cl [701,050]	<=0.5	<=0.5	32 (≈ 77.7 µM)
CCc1[nH]c2nc(Sc3ccc4c[n+]([O-])cnc4c3)nc(N3CC[C@@H](N)C3)c2c1Cl [701,051]	4	2	> 32
CCc1[nH]c2nc(Oc3cncnc3)nc(N3CC4C(C3)C4NC(C)=O)c2c1Br (stereo not drawn) [701,052]	8	4	> 16
CCc1[nH]c2nc(Oc3ccc4cccnc4c3)nc(Oc3ccc4cccnc4c3)c2c1Br [701,054]	1	<=0.5	> 64
CCc1[nH]c2nc(Oc3ccc4cccnc4c3)nc(N3CC4C(N)C4C3)c2c1Cl (stereo not drawn) [701,055]	>64	>64	> 64
CCc1[nH]c2nc(Oc3ccc4ccc[n+]([O-])c4c3)nc(Oc3ccc4ccc[n+]([O-])c4c3)c2c1Br [701,056]	8	4	> 64
CCc1[nH]c2nc(Oc3ccc4c(c3)ncc[n+]4[O-])nc(Oc3ccc4c(c3)ncc[n+]4[O-])c2c1Cl [701,057]	32	8	> 64
CCc1[nH]c2nc(Oc3ccc4c(c3)ncc[n+]4[O-])nc(Oc3ccc4c(c3)ncc[n+]4[O-])c2c1Br [701,058]	<=0.5	<=0.5	> 32
CCc1[nH]c2nc(Oc3ccc4c(c3)ncc[n+]4[O-])nc(Oc3ccc4nccnc4c3)c2c1Br [701,059]	<=0.5	<=0.5	> 64
CCc1[nH]c2nc(Oc3ccc4nccnc4c3)nc(Oc3ccc4c(c3)ncc[n+]4[O-])c2c1Br [701,060]	<=0.5	<=0.5	> 64
CCc1[nH]c2nc(Oc3ccc4c(c3)ncc[n+]4[O-])nc(Oc3ccc4nccnc4c3)c2c1Cl [701,061]	<=0.5	<=0.5	> 32
CCc1[nH]c2nc(Sc3ccc4[nH]cc(C(=O)OC)c4c3)nc(N3CC[C@@H](N)C3)c2c1Cl [701,062]	16	16	> 64
NC1C2CN(c3nc(Sc4cnc5cccnc5c4)nc4[nH]c(C5CC5)c(Cl)c34)CC12 (stereo not drawn) [701,063]	2	2	4 (≈ 8.89 µM)
N[C@@H]1CCN(c2nc(Sc3cnc4cccnc4c3)nc3[nH]c(C4CC4)c(Cl)c23)C1 [701,064]	4	8	4 (≈ 9.13 µM)
NC1CN(c2nc(Sc3cnc4cccnc4c3)nc3[nH]c(C4CC4)c(Cl)c23)C1 [701,065]	4	8	16 (≈ 37.7 µM)
CCc1[nH]c2nc(Sc3ccc4[nH]c(N)nc(=O)c4c3)nc(N3CC[C@@H](N)C3)c2c1Cl [701,066]	>64	4	> 64
CCc1[nH]c2nc(Oc3cc4ncn(C)c4[n+]([O-])c3)nc(Oc3cnc4c(c3)ncn4C)c2c1Cl [701,067]	>64	>64	> 64

Compound	MIC Spn52 (S. pneumoniae ATCC 51916)	MIC, SA (S. aureus ATCC 13709)	MIC EC8 (E. coli 8 ATCC 25922) [µg/mL]
CCc1[nH]c2nc(Sc3ccc4cncnc4c3)nc(N3CC4C(N)C4C3)c2c1Cl (stereo not drawn) [701,069]	<=0.5	<=0.5	8 (≈ 18.3 µM)
CCc1[nH]c2nc(Oc3ccc4cccnc4c3)nc(N3CC[C@@H](N)C3)c2c1Cl [701,070]	8	4	64 (≈ 157 µM)
NC1CN(c2nc(Sc3cnc4ccc[n+]([O-])c4c3)nc3[nH]c(C4CC4)c(Cl)c23)C1 [701,074]	4	8	8 (≈ 18.2 µM)
N[C@@H]1CCN(c2nc(Sc3cnc4ccc[n+]([O-])c4c3)nc3[nH]c(C4CC4)c(Cl)c23)C1 [701,075]	8	8	8 (≈ 17.6 µM)
CCc1[nH]c2nc(SC)nc(N3CC[C@@H](N)C3)c2c1Cl [701,076]	64	>64	> 64
CCc1[nH]c2nc(SC)nc(N3CC[C@@H](N)C3)c2c1C#N [701,077]	>64	>64	> 64
CCc1[nH]c2nc(Oc3cc(C#N)c(OC)c(OC)c3)nc(Oc3ccc4nccnc4c3)c2c1Br [701,081]	<=0.5	<=0.5	> 32
CCc1[nH]c2nc(Sc3ccc4cc5c(nc4c3)CCOC5)nc(N3CC[C@@H](N)C3)c2c1Cl [701,082]	16	<=0.5	4 (≈ 8.32 µM)
CCc1[nH]c2nc(Sc3ccc4cc5c([n+]([O-])c4c3)CCOC5)nc(N3CC[C@@H](N)C3)c2c1Cl [701,083]	1	<=0.5	16 (≈ 32.2 µM)
CCc1[nH]c2nc(Sc3ccc4cc5c([n+]([O-])c4c3)CCOC5)nc(N3CC4C(N)C4C3)c2c1Cl (stereo not drawn) [701,084]	<=0.5	<=0.5	8 (≈ 15.7 µM)
CCc1[nH]c2nc(Sc3ccc4nc(N)n[n+]([O-])c4c3)nc(N3CC[C@@H](N)C3)c2c1Cl [701,087]	<=0.5	<=0.5	> 64
CCc1[nH]c2nc(Sc3cc(C#N)c4c(c3)c(=O)ccn4C)nc(N3CC[C@@H](N)C3)c2c1Cl [701,088]	1	1	32 (≈ 66.7 µM)
CCc1[nH]c2nc(Sc3cnc(N4CCC4)c([N+](=O)[O-])c3)nc(N3CC[C@@H](N)C3)c2c1Cl [701,089]	4	2	> 64
CCc1[nH]c2nc(Sc3ccc4[nH]nnc4c3)nc(N3CC[C@@H](N)C3)c2c1Cl [701,090]	8	8	> 64
CCc1[nH]c2nc(Oc3ccc[n+]([O-])c3)nc(Oc3ccc4nccnc4c3)c2c1Br [701,091]	<=0.5	<=0.5	> 64
CCc1[nH]c2nc(Oc3ccc[n+]([O-])c3)nc(Oc3ccc[n+]([O-])c3)c2c1Br [701,092]	2	<=0.5	> 64
CCc1[nH]c2nc(Oc3ccc[n+]([O-])c3)nc(Oc3cccnc3)c2c1Br [701,093]	4	<=0.5	> 32
CCc1[nH]c2nc(Sc3cnc4[nH][nH]c(=O)c4c3)nc(N3CC[C@@H](N)C3)c2c1Cl [701,094]	>64	>64	> 64
CCc1[nH]c2nc(Oc3cccc(S(C)(=O)=O)c3)nc(Oc3ccc4nccnc4c3)c2c1Br [701,095]	<=0.5	<=0.5	> 64
CCc1[nH]c2nc(Oc3cnc(OC)c(OC)c3)nc(Oc3ccc4nccnc4c3)c2c1Br [701,096]	<=0.5	<=0.5	> 64
CCc1[nH]c2nc(Oc3cnc(OC)c(OC)c3)nc(Oc3cnc(OC)c(OC)c3)c2c1Br [701,097]	1	<=0.5	> 64
CCc1[nH]c2nc(Sc3cnc4nccnc4c3)nc(N3CCC4CN[C@H]4C3)c2c1Cl (stereo partly drawn) [701,102]	1.	<=0.5	16 (≈ 35.3 µM)
